Measured values as given in patent US7790904B2, “Substituted benzimidazole derivatives” (Hoffmann-La Roche Inc., priority 2007, dated 2010).
pEC50, pIC50: −log10 of the molar value.

What was measured:
[1] = target: T1, ligand binding domain (LBD) of human FXR (aa 193-473) (Homo sapiens, UniProt Q96RI1); test: Luciferase transcriptional reporter gene assay (transactivation); assay type: cell-based; conditions: BHK21 cells transfected with pFA-FXR-LBD plus reporter plasmid; 24 hours incubation; luciferase luminescence
T1 sequence (Q96RI1 1-486): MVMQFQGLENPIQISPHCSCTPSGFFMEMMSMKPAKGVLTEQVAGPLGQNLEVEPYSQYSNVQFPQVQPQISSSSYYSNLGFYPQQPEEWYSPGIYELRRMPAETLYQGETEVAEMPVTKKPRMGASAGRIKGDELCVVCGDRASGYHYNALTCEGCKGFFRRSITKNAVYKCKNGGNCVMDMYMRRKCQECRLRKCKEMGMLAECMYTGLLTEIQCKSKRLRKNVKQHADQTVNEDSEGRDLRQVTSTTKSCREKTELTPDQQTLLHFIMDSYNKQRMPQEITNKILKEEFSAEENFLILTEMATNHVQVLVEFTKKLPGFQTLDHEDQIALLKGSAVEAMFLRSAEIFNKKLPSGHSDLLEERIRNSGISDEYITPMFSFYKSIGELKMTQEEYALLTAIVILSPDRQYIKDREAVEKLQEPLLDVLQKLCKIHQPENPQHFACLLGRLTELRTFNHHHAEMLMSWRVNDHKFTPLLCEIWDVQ
Source text: (§1) Bacterial and mammalian expression vectors were constructed to produce glutathione-s-transferase (GST) and Gal4 DNA binding domain (GAL) proteins fused to the ligand binding domain (LBD) of human FXR (aa 193-473). To accomplish this, the portions of the sequences encoding the FXR LBD were amplified by polymerase chain reaction (PCR) from a full-length clone by PCR and then subcloned into the plasmid vectors. The final clone was verified by DNA sequence analysis.
Luciferase Transcriptional Reporter Gene Assays
Baby hamster kidney cells (BHK21 ATCC CCL 10) were grown in DMEM medium containing 10% FBS at 37° C. in a 95% […]/5% CO2 atmosphere. Cells were seeded in 6-well plates at a density of 10^5 cells/well and then transfected with the pFA-FXR-LBD or expression plasmid plus a reporter plasmid. […] Six hours following transfection, the cells were harvested by trypsinization and seeded in 96-well plates at a density of […]. After 24 hours to allow attachment of cells, the medium was removed and replaced with 100 μl of phenol red-free medium containing the test substances or control ligands (final DMSO concentration: 0.4%). Following incubation of the cells for 24 hours with substances, 50 μl of the supernatant was discarded and then 50 μl of Luciferase Constant-Light Reagent (Roche Molecular Biochemicals) was added to lyse the cells and initiate the luciferase reaction. Luminescence, as a measure of luciferase activity, was detected in a Packard TopCount. Transcriptional activation in the presence of a test substance was expressed as fold-change in luminescence compared to that of cells incubated in the absence of the substance. EC50 values were calculated using the XLfit program (ID Business Solutions Ltd. UK).

[2] = target: T2, FXR ligand binding domain (GST-FXR LBD fusion protein) (Homo sapiens, UniProt Q96RI1); test: Radioligand binding assay (SPA, radioligand displacement); conditions: 40 nM GST-FXR LBD on glutathione yttrium silicate SPA beads; radioligand e.g. 20 nM 2,N-dicyclohexyl-2-[2-(2,4 dimethoxy-phenyl)-benzoimidazol-1-yl]-acetamide
T2 construct: made in house; host or cells: E. coli BL21 (pLysS)
T2 sequence (Q96RI1 193-472 isoform Q96RI1-2 limits assumed): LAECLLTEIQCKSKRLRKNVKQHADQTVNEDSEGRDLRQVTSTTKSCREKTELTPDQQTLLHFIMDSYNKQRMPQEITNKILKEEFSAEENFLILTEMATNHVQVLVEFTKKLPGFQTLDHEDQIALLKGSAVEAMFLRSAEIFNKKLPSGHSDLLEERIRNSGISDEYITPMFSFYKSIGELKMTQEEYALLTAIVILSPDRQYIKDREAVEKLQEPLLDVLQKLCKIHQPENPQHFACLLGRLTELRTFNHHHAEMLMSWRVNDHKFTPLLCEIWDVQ
Protocol: The following tests were carried out in order to determine the activity of the compounds of formula (I). Background information on the binding assay can be found in: Nichols J S et al. “Development of a scintillation proximity assay for peroxisome proliferator-activated receptor gamma ligand binding domain”, (1998) Anal. Biochem. 257: 112-119.
as §1
The induction, expression, and subsequent purification of GST-LBD fusion protein was performed in E. coli strain BL21 (pLysS) cells by standard methods (Current Protocols in Molecular Biology, Wiley Press, ed. Ausubel et al.).
Radioligand Binding Assay
Binding of test substances to the FXR ligand binding domain was assessed in a radioligand displacement assay. The assay was performed in a buffer consisting of 50 mM Hepes, pH 7.4, 10 mM NaCl, 5 mM MgCl2, 0.01% CHAPS. For each reaction well in a 96-well plate, 40 nM of GST-FXR LBD fusion protein was bound to 10 μg glutathione ytrium silicate SPA beads (PharmaciaAmersham) in a final volume of 50 μl by shaking. A radioligand (e.g. 20 nM of 2,N-dicyclohexyl-2-[2-(2,4 dimethoxy-phenyl)-benzoimidazol-1-yl]-acetamide) and test compounds were added, and scintillation proximity counting was performed. All binding assays were performed in 96-well plates and the amount of bound ligand was measured on a Packard TopCount using OptiPlates (Packard). Dose response curves were performed within a range of test compound concentrations from 6×10^−9 M to 2.5×10^−5 M and IC50s were calculated.

Cc1cc(Cl)ccc1O[C@H](C)c1nc2ccc(F)cc2n1[C@H](C(=O)NC1CCCCC1)C1CCCCC1 [Example 31, (S)-2-{2-[(R)-1-(4-Chloro-2-methyl-phenoxy)-ethyl]-6-fluoro-benzoimidazol-1-yl}-2,N-dicyclohexyl-acetamide]
pEC50 [1]: 6.60
pIC50 [2]: 6.93

Cc1cccc(OCc2nc3cc(F)ccc3n2C(C(=O)NC2CCCCC2)C2CCCCC2)c1C (stereo not drawn) [Example 49, 2,N-Dicyclohexyl-2-[2-(2,3-dimethyl-phenoxymethyl)-5-fluoro-benzoimidazol-1-yl]-acetamide]
pEC50 [1]: 7.02
pIC50 [2]: 7.42

O=C(NC1CCCCC1)C(C1CCCCC1)n1c(COc2ccccn2)nc2cc(F)ccc21 (stereo not drawn) [Example 56, 2,N-Dicyclohexyl-2-[5-fluoro-2-(pyridin-2-yloxymethyl)-benzoimidazol-1-yl]-acetamide]
pEC50 [1]: 6.01
pIC50 [2]: 6.98
